Measured values taken from patent publication US20030032580A1, “Use of agonists or antagonists of the 5-HT7 receptor to treat disorders of the bladder” (Synaptic Pharmaceutical Corporation, priority 1999, published 2003).
Where “and” joins values, the source holds several entries; their conditions need not be identical. Identical values can stand only once.

Tests used:
5-HT1B = 5-HT1B (Rattus norvegicus, UniProt P28564); conditions: Hoyer, 1989; Hoyer et al., 1994; cited from earlier work
5-HT1D = conditions: Hoyer, 1989; Hoyer et al., 1994; cited from earlier work
5-HT2C = molecular target: T1, 5-HT2C (Homo sapiens, UniProt P28335); conditions: Hoyer, 1989; Hoyer et al., 1994; cited from earlier work
T1 sequence (P28335 33-458): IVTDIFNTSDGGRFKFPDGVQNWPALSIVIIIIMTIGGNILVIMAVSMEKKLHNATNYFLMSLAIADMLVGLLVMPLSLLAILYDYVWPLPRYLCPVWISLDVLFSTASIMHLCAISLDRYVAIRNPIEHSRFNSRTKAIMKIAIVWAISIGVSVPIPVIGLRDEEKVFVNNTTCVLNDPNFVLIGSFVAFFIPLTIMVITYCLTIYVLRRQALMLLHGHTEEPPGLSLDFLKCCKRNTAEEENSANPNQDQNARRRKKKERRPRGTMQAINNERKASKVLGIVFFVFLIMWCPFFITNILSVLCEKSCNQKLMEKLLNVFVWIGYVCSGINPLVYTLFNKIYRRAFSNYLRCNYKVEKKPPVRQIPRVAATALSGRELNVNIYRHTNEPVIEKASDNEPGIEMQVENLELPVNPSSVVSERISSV

5-HT5A = conditions: Hoyer et al., 1994; cited from earlier work
[1] = molecular target: T2, 5-HT7 receptor (first phase of the concentration-effect curve to 5-CT in the rat bladder) (Rattus norvegicus, UniProt P32305); experiment: Electrically stimulated rat bladder strips: first (high potency) phase of the concentration-effect curve to 5-CT; type: cell-based; conditions: for effect on high potency responses to 5-CT: pindolol 1 μM, tropisetron 10 μM, ketanserin 0.1 μM
T2 construct: from tissue; host or cells: rat urinary bladder detrusor strips

5-HT1A = molecular target: T3, 5-HT1A (Homo sapiens, UniProt P08908); conditions: Hoyer, 1989; cited from earlier work
T3 sequence (P08908 1-422): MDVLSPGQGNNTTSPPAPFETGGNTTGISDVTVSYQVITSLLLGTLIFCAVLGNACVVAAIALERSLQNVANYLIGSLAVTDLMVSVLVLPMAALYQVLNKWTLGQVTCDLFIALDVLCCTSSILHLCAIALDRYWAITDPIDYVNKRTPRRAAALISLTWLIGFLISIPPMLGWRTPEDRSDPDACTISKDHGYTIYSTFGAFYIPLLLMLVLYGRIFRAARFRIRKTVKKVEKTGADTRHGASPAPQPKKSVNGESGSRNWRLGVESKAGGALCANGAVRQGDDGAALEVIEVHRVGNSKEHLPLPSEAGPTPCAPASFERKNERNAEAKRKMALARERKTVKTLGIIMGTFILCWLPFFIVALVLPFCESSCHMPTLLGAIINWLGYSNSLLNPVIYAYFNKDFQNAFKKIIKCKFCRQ

5-HT1F = molecular target: T4, 5-HT1F (Homo sapiens, UniProt P30939); conditions: Adham et al., 1993; cited from earlier work
T4 sequence (P30939 1-366): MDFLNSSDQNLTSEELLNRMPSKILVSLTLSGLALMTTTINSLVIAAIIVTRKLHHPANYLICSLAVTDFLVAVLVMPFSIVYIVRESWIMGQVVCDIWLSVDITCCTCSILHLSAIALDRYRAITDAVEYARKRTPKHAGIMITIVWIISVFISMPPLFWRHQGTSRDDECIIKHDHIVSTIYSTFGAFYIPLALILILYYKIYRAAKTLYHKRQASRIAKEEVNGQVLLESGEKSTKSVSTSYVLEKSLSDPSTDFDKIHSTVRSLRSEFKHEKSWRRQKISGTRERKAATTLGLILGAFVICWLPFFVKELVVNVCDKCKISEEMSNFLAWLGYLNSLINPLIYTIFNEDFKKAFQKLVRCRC

5-HT6 = 5-HT6 (Rattus norvegicus, UniProt P31388); conditions: Hoyer et al., 1994; cited from earlier work
5-HT2A = 5-HT2A (Homo sapiens, UniProt P28223); conditions: Hoyer, 1989; Hoyer et al., 1994; cited from earlier work
[2] = molecular target: cloned rat 5-HT7 receptor (Rattus norvegicus, UniProt P32305); conditions: references 2 and 3; cited from earlier work
[3] = molecular target: T5, 5-HT2B receptor (second phase of the concentration-effect curve to 5-CT in the rat bladder) (Rattus norvegicus, UniProt P30994); experiment: Electrically stimulated rat bladder strips: second (low potency) phase of the concentration-effect curve to 5-CT; type: cell-based; conditions: for effect on low potency responses to 5-CT: pindolol 1 μM, tropisetron 10 μM, ketanserin 0.1 μM
T5 construct: from tissue; host or cells: rat urinary bladder detrusor strips

[4] = test system: rat urinary bladder strips; experiment: Isolated rat urinary bladder strips: agonist-evoked increase of electrically evoked, nerve-mediated contractions; type: cell-based; conditions: for ability to modify the effects of 5-HT: 10 μM; for effect on the magnitude of electrically evoked contractions: agonist alone, electrically stimulated rat bladder strips
Source text: 5-HT receptors in the rat urinary bladder which, when activated by serotonin agonists, cause increases in the magnitude of nerve-mediated contractions, were identified and characterized pharmacologically using isolated strips of rat bladder.
Urinary bladders were isolated from female CD rats (Charles Rivers, 250-300 g). The bladder base (lower third) was removed and the detrusor region was opened into a flat sheet by cutting from the basal opening to the apex. This was cut into quadrants, each of which was attached on its lateral edges by two tissue clips and suspended in a 5 ml tissue bath containing Krebs' solution (pH 7.4 37° C.) of the following composition (mM): NaCl (118), KCl (4.9), NaHCO3 (25), MgCl2 (1.2), NaHPO4 (1.0), CaCl2 (2.5), glucose (11) and aerated continuously with 95% O2/5% CO2. Except in initial experiments, prazosin (0.1 μM), idazoxan (0.3 μM), and indomethacin (10 μM) were included routinely in the buffer to block α1- and α2-adrenoceptors and to prevent the formation of prostaglandins, respectively. After allowing 30 min for equilibration, bladder strips were placed under 1.0 g resting tension, readjusted 6 times over the next 30 min. For most experiments contractile responses were evoked by transmural electrical impulses delivered by Grass S-88 (Grass Instruments, City, Mass.) stimulators (single pulses, 0.1 Hz, 1 ms pulse width, 90 V) through a pair of stainless steel electrodes. Contractions were measured using isometric force transducers (Radnotti Instruments, Monrovia, Calif.) and recorded using MacLab software (AD Instruments, Milford, Mass.).
Bladder strips, in Krebs' solution containing antagonist or vehicle, were stimulated at supramaximal voltage until contractions of consistent magnitude were obtained (ca. 30 min). During this period the Krebs' solution was exchanged at 15 min intervals. Cumulative concentration-effect curves were then constructed by administering 5-carboxamidotryptamine (5-CT) or other agonists in 0.5 log M increments. Responses are expressed as a percent of control, and represent agonist-evoked increases in the magnitude of the electrically evoked contractions relative to that in the absence of agonist (“control”, taken as 100%). […] Therefore, only a single agonist concentration-effect curve was constructed in each tissue.
Concentration-effect curves were fitted (Kaleidagraph, Synergy Software, PCS Inc., Reading PA) to 1-site or 2-site models of agonism as represented by the following equations:
(1-site): Effect=Emax[A]^n/[A]^n+EC50^n;
(2-site): Effect=(Emax^a[A]/[A]+EC50^a+(Emax^b[A]/[A]+EC50^b),
where Emax represents the maximum effect of the agonist, [A] is the agonist molar concentration, EC50 is the concentration of agonist eliciting half its maximum effect, n is the slope factor, and the italicized superscripts (a and b) denote values for the first and second phase of the biphasic curve. Antagonist pKB values were determined using the formula described by Furchgott (1972): pKB=log (agonist concentration ratio −1/antagonist concentration [M]. In some instances, pKB values were determined according to the method of Arunlakshana and Schild (1959), in which the slope of the Schild plot was constrained to unity. Concentration ratios for Schild analyses were calculated from mean EC50 values for the agonist in the absence and presence of the antagonist in experiments from n different animals.

5-HT1E = 5-HT1E (Homo sapiens, UniProt P28566); conditions: Adham et al., 1993; cited from earlier work
[5] = molecular target: cloned human 5-HT7 receptor (Homo sapiens, UniProt P34969); conditions: cited from earlier work; for pK1: cloned human 5-HT7 receptor, references 1 and 4
[6] = molecular target: cloned rat 5-HT2B receptor (Rattus norvegicus, UniProt P30994); conditions: cited from earlier work
[7] = bladder pKB versus published value
[8] = bladder pKB versus published values

Chain of cloned human 5-HT7 receptor (P34969 1-445 isoform P34969-2): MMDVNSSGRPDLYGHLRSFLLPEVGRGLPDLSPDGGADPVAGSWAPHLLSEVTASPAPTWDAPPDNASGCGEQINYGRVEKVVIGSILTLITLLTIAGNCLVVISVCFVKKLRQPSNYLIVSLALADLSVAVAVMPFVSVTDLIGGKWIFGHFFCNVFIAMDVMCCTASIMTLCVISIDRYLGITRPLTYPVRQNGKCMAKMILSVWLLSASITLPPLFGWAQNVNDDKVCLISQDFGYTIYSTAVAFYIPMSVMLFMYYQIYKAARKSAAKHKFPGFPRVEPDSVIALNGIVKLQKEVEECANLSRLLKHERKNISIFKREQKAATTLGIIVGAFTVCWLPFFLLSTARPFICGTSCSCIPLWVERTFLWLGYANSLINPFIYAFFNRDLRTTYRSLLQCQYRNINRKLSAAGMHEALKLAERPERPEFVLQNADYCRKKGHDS
Chain of 5-HT1B (P28564 whole entry): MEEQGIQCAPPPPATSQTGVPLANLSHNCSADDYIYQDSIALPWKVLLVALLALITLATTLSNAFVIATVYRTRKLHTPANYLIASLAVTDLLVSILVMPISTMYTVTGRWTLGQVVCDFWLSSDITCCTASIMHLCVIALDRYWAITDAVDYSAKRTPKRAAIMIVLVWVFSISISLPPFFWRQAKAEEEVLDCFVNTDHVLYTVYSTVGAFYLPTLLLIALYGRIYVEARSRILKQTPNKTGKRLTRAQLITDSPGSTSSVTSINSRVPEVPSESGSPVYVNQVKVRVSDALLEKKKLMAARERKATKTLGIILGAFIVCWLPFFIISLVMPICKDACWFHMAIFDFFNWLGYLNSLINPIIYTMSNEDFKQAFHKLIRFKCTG
T5 sequence (P30994 whole entry): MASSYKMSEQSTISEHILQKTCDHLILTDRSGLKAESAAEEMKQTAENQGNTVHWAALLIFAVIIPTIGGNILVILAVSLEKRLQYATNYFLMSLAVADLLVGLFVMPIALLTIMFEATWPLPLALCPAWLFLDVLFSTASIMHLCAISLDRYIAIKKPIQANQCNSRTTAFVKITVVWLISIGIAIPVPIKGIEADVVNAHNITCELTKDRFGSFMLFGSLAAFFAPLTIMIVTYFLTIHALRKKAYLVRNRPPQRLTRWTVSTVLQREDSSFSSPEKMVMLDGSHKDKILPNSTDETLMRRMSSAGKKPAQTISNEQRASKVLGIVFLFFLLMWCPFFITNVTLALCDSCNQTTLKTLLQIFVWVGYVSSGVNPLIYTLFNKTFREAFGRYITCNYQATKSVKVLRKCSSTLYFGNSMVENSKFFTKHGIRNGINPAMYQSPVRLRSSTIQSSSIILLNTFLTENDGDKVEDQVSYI
T2 sequence (P32305 whole entry): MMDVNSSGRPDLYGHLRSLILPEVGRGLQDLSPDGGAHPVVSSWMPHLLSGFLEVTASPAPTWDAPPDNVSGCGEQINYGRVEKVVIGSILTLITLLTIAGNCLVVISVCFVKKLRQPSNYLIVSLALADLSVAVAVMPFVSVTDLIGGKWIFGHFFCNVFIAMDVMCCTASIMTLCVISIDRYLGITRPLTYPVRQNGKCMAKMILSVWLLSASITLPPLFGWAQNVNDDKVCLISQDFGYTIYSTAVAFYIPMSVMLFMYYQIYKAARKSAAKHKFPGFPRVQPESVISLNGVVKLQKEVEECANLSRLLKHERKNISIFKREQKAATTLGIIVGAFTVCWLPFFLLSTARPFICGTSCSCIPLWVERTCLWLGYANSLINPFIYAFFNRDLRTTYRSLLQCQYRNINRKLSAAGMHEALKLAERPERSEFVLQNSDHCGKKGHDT
Chain of cloned rat 5-HT7 receptor (P32305 whole entry): as above
Chain of 5-HT2A (P28223 whole entry, species assumed): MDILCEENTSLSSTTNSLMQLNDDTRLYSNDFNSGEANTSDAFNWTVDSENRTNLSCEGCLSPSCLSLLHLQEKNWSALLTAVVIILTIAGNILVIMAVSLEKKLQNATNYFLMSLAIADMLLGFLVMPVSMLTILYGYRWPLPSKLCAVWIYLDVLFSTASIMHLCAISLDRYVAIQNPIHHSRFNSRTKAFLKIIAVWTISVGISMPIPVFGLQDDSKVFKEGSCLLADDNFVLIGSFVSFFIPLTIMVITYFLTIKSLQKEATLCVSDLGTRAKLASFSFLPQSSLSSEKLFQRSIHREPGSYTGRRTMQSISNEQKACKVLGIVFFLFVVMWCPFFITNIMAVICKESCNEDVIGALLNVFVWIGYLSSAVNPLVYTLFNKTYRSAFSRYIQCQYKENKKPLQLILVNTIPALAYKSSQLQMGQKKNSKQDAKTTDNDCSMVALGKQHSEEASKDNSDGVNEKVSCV
Chain of 5-HT1E (P28566 whole entry): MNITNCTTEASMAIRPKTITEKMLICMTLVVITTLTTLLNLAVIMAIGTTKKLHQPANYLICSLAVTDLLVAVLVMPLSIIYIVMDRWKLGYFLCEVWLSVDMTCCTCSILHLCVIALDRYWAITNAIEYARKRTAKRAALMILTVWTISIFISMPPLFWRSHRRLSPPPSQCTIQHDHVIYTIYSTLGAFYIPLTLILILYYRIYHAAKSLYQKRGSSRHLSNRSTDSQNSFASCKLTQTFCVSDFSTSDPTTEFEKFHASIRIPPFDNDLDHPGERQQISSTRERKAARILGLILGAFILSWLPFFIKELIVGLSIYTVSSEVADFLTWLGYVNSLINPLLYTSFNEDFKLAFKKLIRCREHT
Chain of cloned rat 5-HT2B receptor (P30994 whole entry): as the sequence (P30994 whole entry) above
Chain of 5-HT6 (P31388 whole entry): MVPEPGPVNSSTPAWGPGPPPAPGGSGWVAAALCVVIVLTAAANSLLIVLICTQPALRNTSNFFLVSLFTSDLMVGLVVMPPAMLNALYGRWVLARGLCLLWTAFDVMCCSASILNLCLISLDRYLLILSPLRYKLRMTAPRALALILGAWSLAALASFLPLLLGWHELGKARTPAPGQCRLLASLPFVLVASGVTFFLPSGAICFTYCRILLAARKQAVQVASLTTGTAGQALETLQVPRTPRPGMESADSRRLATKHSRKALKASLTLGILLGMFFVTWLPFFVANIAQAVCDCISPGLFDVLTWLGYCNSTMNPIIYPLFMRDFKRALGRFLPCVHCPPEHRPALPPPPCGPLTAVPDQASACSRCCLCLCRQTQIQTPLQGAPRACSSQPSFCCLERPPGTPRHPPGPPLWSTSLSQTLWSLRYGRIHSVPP

Compound: O=C(CCCN1CCC2(CC1)C(=O)NCN2c1ccccc1)c1ccc(F)cc1 [spiperone]
- pKB, 5-HT1B (5-HT1B): 4.4
- pKB, 5-HT1D (5-HT1D): 4.8
- pKB, 5-HT2C (5-HT2C): 5.9
- pKB, 5-HT5A (5-HT5A): 5.6
- first-phase affinity greater than that for the 5-HT2C receptor subtype [1, 7]: ~30 fold
- first-phase affinity lower than that for the 5-HT2A receptor subtype [1, 7]: ~30 fold
- first-phase affinity greater than that for 5-HT1B, 5-HT1D, 5-HT5A and 5-HT2B receptor subtype [1, 8]: at least 100 fold

Compound: CN1C[C@@H](NS(=O)(=O)N(C)C)C[C@@H]2c3cccc4c3c(cn4C)C[C@H]21 [mesulergine]
- pKB, 5-HT1B (5-HT1B): 4.9
- pKB, 5-HT1A (5-HT1A): 6.2
- pKB, 5-HT1F (5-HT1F): < 5
- pKB, 5-HT6 (5-HT6): 5.8
- pKB, 5-HT2A (5-HT2A): 9.1

Compound: O=C(c1ccc(F)cc1)C1CCN(CCn2c(=O)[nH]c3ccccc3c2=O)CC1 [ketanserin]
- pK1 [2]: 5.6
- effect on low potency responses to 5-CT [3]: not affected
- effect on high potency responses to 5-CT [1]: not affected

Compound: CC(C)n1c(=O)n(C(=O)NC2CC3CCC(C2)N3C)c2ccccc21 (stereo not shown) [BIMU-8]
- ability to modify the effects of 5-HT [4]: failure
- effect on the magnitude of electrically evoked contractions [4]: inactive

Compound: CSc1ccc2c(c1)C(N1CCN(C)CC1)Cc1ccccc1S2 (stereo not shown) [methiothepin]
- pKB, 5-HT1E (5-HT1E): 6.7
- pKB, 5-HT1B (5-HT1B): 7.3
- pKB, 5-HT1D (5-HT1D): 7.3
- pKB, 5-HT5A (5-HT5A): 7.0
- pKB, 5-HT1F (5-HT1F): 6.2

Compound: CC(C)n1cc2c3c(cccc31)C1C[C@@H](C(=O)N[C@H]3CCC[C@H]3O)CN(C)[C@@H]1C2 (stereo partly shown) [LY215840]
- pK1 [5]: 7.8
- pKB ([1]; inhibition of the first phase of the concentration-effect curve to 5-CT in the rat bladder, antagonists tested in the presence of 0.1 μM 1-NP): 8.2

Compound: CC(N)Cc1c[nH]c2ccc(O)cc12 (stereo not drawn) [α-Me-5-HT, α-methyl-5-hydroxytryptamine]
- effect on the magnitude of electrically evoked contractions [4]: mimicked

Compound: NCCc1c[nH]c2ccc(O)cc12 [5-HT, 5-hydroxytryptamine]
- effect on the magnitude of electrically evoked contractions [4]: marked increases

Compound: c1ccc2c(N3CCNCC3)cccc2c1 [1-NP, 1-(1-naphthyl)piperazine]
- pKB, 5-HT1E (5-HT1E): 6.7
- pKB, 5-HT1B (5-HT1B): 6.6
- pKB, 5-HT2B ([6]; Wainscott et al., 1993): 8.3
- pK1 ([6]; cloned rat 5-HT2B receptor, reference 1 (Wainscott et al., 1993)): 8.3-8.7
- pKB, 5-HT1A (5-HT1A): 7.2
- pKB, 5-HT2C (5-HT2C): 8.2
- pKB, 5-HT7 ([5]; Bard et al., 1993): 7.1
- pK1 [5]: 7.1
- Kb [3]: 3.16 nM
- shift of the low potency (second) phase of the concentration-effect curve ([3]; 0.1 μM): 100 fold
- second-phase affinity greater than affinity for 5-HT1A, 5-HT1B, 5-HT1E, 5-HT2A and 5-HT7 subtypes [3, 8]: at least 10 fold
- slope of Schild analysis ([3]; second phase, 0.01 to 1.0 μM): unit slope
- pKB, 5-HT2A (5-HT2A): 7.2
- effect on the high potency (first) phase of the curve ([1]; 0.1 μM): no effect
- rightward shift of the first phase of the response to 5-CT ([1]; 1.0 μM): 6.8 ±0.54 fold
- Kb ([1]; pKB, inhibition of the first phase of the concentration-effect curve to 5-CT in the rat bladder, antagonists tested in the presence of 0.1 μM 1-NP): 158 nM and 251 nM

Compound: CC(C)NCC(O)COc1cccc2[nH]ccc12 (single isomer, unassigned) [pindolol]
- pK1 [2]: <6
- effect on low potency responses to 5-CT [3]: not affected
- effect on high potency responses to 5-CT [1]: not affected

Compound: CCCN(CCC)C1CCc2cccc(O)c2C1 (stereo not shown) [8-OH-DPAT]
- ability to modify the effects of 5-HT [4]: failure
- effect on the magnitude of electrically evoked contractions [4]: inactive

Compound: COc1ccc2[nH]cc(CCN)c2c1 [5-MeOT]
- effect on the magnitude of electrically evoked contractions [4]: mimicked

Compound: CCCN(CCC)CCc1c[nH]c2ccc(C(N)=O)cc12 [DP-5-CT]
- effect on the magnitude of electrically evoked contractions [4]: mimicked

Compound: CN1[C@@H]2CC[C@H]1C[C@@H](OC(=O)c1c[nH]c3ccccc13)C2 [tropisetron]
- pK1 [2]: <4.5
- effect on low potency responses to 5-CT [3]: not affected
- effect on high potency responses to 5-CT [1]: not affected
